Assay results: US12018021B2 (UCB Biopharma SRL, priority 2018, dated 2024)

Target: IgE-Tb / FcεRIα-Y131A-AF488 (Homo sapiens, UniProt P01854)
Assay: IgE-Tb / FcεRIα-Y131A-AF488 FRET assay (protocol for examples 1 to 233)
Format: binding
Conditions: examples 1 to 233: 5 nM IgE-Tb, 25 nM FcεRIα-Y131A-AF488, incubated 2 hours at room temperature; read-out: Y131A FRET IC50 range
Summary of the method: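 TR-FRET displacement with 5 nM IgE-Tb and 25 nM FcεRIα-Y131A-AF488 (final), 10-point 3-fold compound dilutions from typically 10 μM top, 2% DMSO, 2 h at room temperature. Excitation 330 nm, 520/495 nm emission ratio; MIN set with 200 nM unlabelled FcεRIα. IC50 from four-parameter logistic fit of percent inhibition.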

Chain of IgE-Tb / FcεRIα-Y131A-AF488 (P01854 1-427 limits assumed, stated change not applied): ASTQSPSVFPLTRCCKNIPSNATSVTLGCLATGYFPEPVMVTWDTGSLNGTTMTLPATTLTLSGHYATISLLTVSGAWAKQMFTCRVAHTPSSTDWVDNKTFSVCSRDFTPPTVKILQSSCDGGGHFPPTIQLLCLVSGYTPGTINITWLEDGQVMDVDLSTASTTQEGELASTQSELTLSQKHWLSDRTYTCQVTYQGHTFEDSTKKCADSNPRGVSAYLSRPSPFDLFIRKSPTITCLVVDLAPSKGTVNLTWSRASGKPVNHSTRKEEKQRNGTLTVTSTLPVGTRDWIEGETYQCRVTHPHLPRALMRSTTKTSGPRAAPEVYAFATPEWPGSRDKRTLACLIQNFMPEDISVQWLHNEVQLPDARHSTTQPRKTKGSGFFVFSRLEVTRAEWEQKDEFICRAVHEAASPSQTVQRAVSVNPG

SMILES | IC50 [µM]
CC1(C)CCc2sc(NC(=O)C3CC3)c(C(=O)NCC3CC3)c2C1 [Example 84, 2-(Cyclopropanecarbonylamino)-N-(cyclopropylmethyl)-5,5-dimethyl-6,7-dihydro-4H-benzothiophene-3-carboxamide] | 1 to 10
CCCCS(=N)(=O)c1c(NC(=O)C2CC2)sc2c1CCCC2 (stereo not drawn) [Example 38, N-[3-(Butylsulfonimidoyl)-4,5,6,7-tetrahydrobenzothiophen-2-yl]cyclopropanecarboxamide] | 1 to 10
O=C(NCC1CC1)c1c(NC(=O)C2CC2)sc2c1CC(n1cnnc1NCCN1CCOCC1)CC2 (stereo in doubt) [Example 118, (5S)-2-(Cyclopropanecarbonylamino)-N-(cyclopropylmethyl)-5-[3-(2-morpholinoethylamino)-1,2,4-triazol-4-yl]-4,5,6,7-tetrahydrobenzothiophene-3-carboxamide] | < 1
O=C(NCC1CC1)c1c(NC(=O)C2CC2)sc2c1C[C@@H](n1cnnc1Nc1cncnc1)CC2 [Example 132, (5S)-2-(Cyclopropanecarbonylamino)-N-(cyclopropylmethyl)-5-[3-(pyrimidin-5-ylamino)-1,2,4-triazol-4-yl]-4,5,6,7-tetrahydrobenzothiophene-3-carboxamide] | < 1
CC(C)(O)CNS(=O)(=O)c1c(NC(=O)C2CC2)sc2c1CCCC2 [Example 18, N-[3-[(2-Hydroxy-2-methyl-propyl)sulfamoyl]-4,5,6,7-tetrahydrobenzothiophen-2-yl]cyclopropanecarboxamide] | 1 to 10
CC(C)C(=O)Nc1sc2c(c1C(=O)NCC1CC1)CCCC2 [Example 87, N-(Cyclopropylmethyl)-2-(2-methylpropanoylamino)-4,5,6,7-tetrahydrobenzothiophene-3-carboxamide] | 10 to 50
COc1ccccc1NC(=O)NC1CCc2sc(NC(=O)C3CC3)c(C(=O)NCC3CC3)c2C1 (stereo not drawn) [Example 172, 2-(Cyclopropanecarbonylamino)-N-(cyclopropylmethyl)-5-[(2-methoxyphenyl)carbamoylamino]-4,5,6,7-tetrahydrobenzothiophene-3-carboxamide] | < 1
Cc1ccc(NC(=O)NCC2(O)CCc3sc(NC(=O)C4CC4)c(C(=O)NCC4CC4)c3C2)cc1 (stereo not drawn) [Example 70, 2-(Cyclopropanecarbonylamino)-N-(cyclopropylmethyl)-5-hydroxy-5-[(p-tolylcarbamoylamino)methyl]-6,7-dihydro-4H-benzothiophene-3-carboxamide] | 1 to 10
O=C(NCC1CC1)c1c(NC(=O)C2CC2)sc2c1CC(N1CCOCC1)CC2 (stereo not drawn) [Example 201, 2-(Cyclopropanecarbonylamino)-N-(cyclopropylmethyl)-5-morpholino-4,5,6,7-tetrahydrobenzothiophene-3-carboxamide] | 1 to 10
O=C(NCC1CC1)c1c(NC(=O)C2CC2)sc2c1CC(Nc1nc3ccccc3[nH]1)CC2 (stereo not drawn) [Example 175, 5-(1H-Benzimidazol-2-ylamino)-2-(cyclopropanecarbonylamino)-N-(cyclopropylmethyl)-4,5,6,7-tetrahydrobenzothiophene-3-carboxamide] | < 1
O=C(NCC1CC1)c1c(NC(=O)C2CC2)sc2c1CC(Nc1nc[nH]n1)CC2 (stereo not drawn) [Example 161, 2-(Cyclopropanecarbonylamino)-N-(cyclopropylmethyl)-5-(1H-1,2,4-triazol-3-ylamino)-4,5,6,7-tetrahydrobenzothiophene-3-carboxamide] | < 1
O=C(NCC1CC1)c1c(NC(=O)C2CC2)sc2c1CC(C(=O)NCCc1ccc(O)cc1)CC2 (stereo not drawn) [Example 57, 2-(Cyclopropanecarbonylamino)-N3-(cyclopropylmethyl)-N5-[2-(4-hydroxyphenyl)ethyl]-4,5,6,7-tetrahydrobenzothiophene-3,5-dicarboxamide] | < 1
CCCCS(=O)(=O)c1c(NC(=O)C2CC2)sc2c1CCCC2 [Example 22, N-(3-Butylsulfonyl-4,5,6,7-tetrahydrobenzothiophen-2-yl)cyclopropanecarboxamide] | 1 to 10
Cn1nc(C(=O)O)cc1Nc1nncn1[C@H]1CCc2sc(NC(=O)C3CC3)c(C(=O)NCC3CC3)c2C1 [Example 233, 5-[[4-[(5S)-2-(Cyclopropanecarbonylamino)-3-(cyclopropylmethylcarbamoyl)-4,5,6,7-tetrahydrobenzothiophen-5-yl]-1,2,4-triazol-3-yl]amino]-1-methyl-pyrazole-3-carboxylic acid] | < 1
O=C(NCC1CC1)c1c(NC(=O)C2CC2)sc2c1CC(C(=O)Nc1ccc3[nH]ncc3c1)CC2 (stereo not drawn) [Example 45, 2-(Cyclopropanecarbonylamino)-N3-(cyclopropylmethyl)-N5-(1H-indazol-5-yl)-4,5,6,7-tetrahydrobenzothiophene-3,5-dicarboxamide; 2,2,2-trifluoroacetic acid] | < 1
CCn1cnnc1NCC1CCc2sc(NC(=O)C3CC3)c(C(=O)NCC3CC3)c2C1 (stereo not drawn) [Example 59, 2-(Cyclopropanecarbonylamino)-N-(cyclopropylmethyl)-5-[[(4-ethyl-1,2,4-triazol-3-yl)amino]methyl]-4,5,6,7-tetrahydrobenzothiophene-3-carboxamide] | < 1
CCNC(=NC#N)NC1CCc2sc(NC(=O)C3CC3)c(S(=O)(=O)NCC3CC3)c2C1 (stereo not drawn) [Example 31, N-[5-[[N′-Cyano-N-ethyl-carbamimidoyl]amino]-3-(cyclopropylmethylsulfamoyl)-4,5,6,7-tetrahydrobenzothiophen-2-yl]cyclopropanecarboxamide] | < 1
Nc1cnnn1C1CCc2sc(NC(=O)C3CC3)c(C(=O)NCC3CC3)c2C1 (stereo not drawn) [Example 171, 5-(5-Aminotriazol-1-yl)-2-(cyclopropanecarbonylamino)-N-(cyclopropylmethyl)-4,5,6,7-tetrahydrobenzothiophene-3-carboxamide] | < 1
Cc1ccc(NCC2(O)CCc3sc(NC(=O)C4CC4)c(C(=O)NCC4CC4)c3C2)cc1 (stereo not drawn) [Example 60, 2-(Cyclopropanecarbonylamino)-N-(cyclopropylmethyl)-5-hydroxy-5-[(4-methylanilino)methyl]-6,7-dihydro-4H-benzothiophene-3-carboxamide] | 1 to 10
Nc1noc(=O)n1C1CCc2sc(NC(=O)C3CC3)c(C(=O)NCC3CC3)c2C1 (stereo not drawn) [Example 187, 5-(3-Amino-5-oxo-1,2,4-oxadiazol-4-yl)-2-(cyclopropanecarbonylamino)-N-(cyclopropylmethyl)-4,5,6,7-tetrahydrobenzothiophene-3-carboxamide] | < 1
CCNC(=C[N+](=O)[O-])NC1CCc2sc(NC(=O)C3CC3)c(C(=O)NCC3CC3)c2C1 (stereo not drawn) [Example 151, 2-(cyclopropanecarbonylamino)-N-(cyclopropylmethyl)-5-[[1-(ethylamino)-2-nitro-vinyl]amino]-4,5,6,7-tetrahydrobenzothiophene-3-carboxamide] | 1 to 10
CCOC(=O)c1c(NC(=O)C2CC2)sc2c1CCCC2O (stereo not drawn) [Example 103, Ethyl 2-(cyclopropanecarbonylamino)-7-hydroxy-4,5,6,7-tetrahydrobenzothiophene-3-carboxylate] | 10 to 50
Cn1nc(C2CC2)cc1Nc1nncn1[C@H]1CCc2sc(NC(=O)C3CC3)c(C(=O)NCC3CC3)c2C1 [Example 219, (5S)-2-(cyclopropanecarbonylamino)-N-(cyclopropylmethyl)-5-[3-[(5-cyclopropyl-2-methyl-pyrazol-3-yl)amino]-1,2,4-triazol-4-yl]-4,5,6,7-tetrahydrobenzothiophene-3-carboxamide] | < 1
O=C(NCC1CC1)c1c(NC(=O)C2CC2)sc2c1CC(Nc1nc(=O)cc(C(F)(F)F)[nH]1)CC2 (stereo not drawn) [Example 210, 2-(Cyclopropanecarbonylamino)-N-(cyclopropylmethyl)-5-[[4-oxo-6-(trifluoromethyl)-1H-pyrimidin-2-yl]amino]-4,5,6,7-tetrahydrobenzothiophene-3-carboxamide] | < 1
Cc1ccc(OC(=O)NC2CCc3sc(NC(=O)C4CC4)c(C(=O)NCC4CC4)c3C2)cc1 (stereo not drawn) [Example 181, p-Tolyl N-[2-(cyclopropanecarbonylamino)-3-(cyclopropylmethylcarbamoyl)-4,5,6,7-tetrahydrobenzothiophen-5-yl]carbamate] | < 1
O=C(NCC1CC1)c1c(NC(=O)C2CC2)sc2c1CC(NCc1ccccc1)CC2 (stereo not drawn) [Example 174, 5-(Benzylamino)-2-(cyclopropanecarbonylamino)-N-(cyclopropylmethyl)-4,5,6,7-tetrahydrobenzothiophene-3-carboxamide] | 10 to 50
Cc1noc(C)c1Nc1nncn1[C@H]1CCc2sc(NC(=O)C3CC3)c(C(=O)NCC3CC3)c2C1 [Example 148, (5S)-2-(Cyclopropanecarbonylamino)-N-(cyclopropylmethyl)-5-[3-[(3,5-dimethylisoxazol-4-yl)amino]-1,2,4-triazol-4-yl]-4,5,6,7-tetrahydrobenzothiophene-3-carboxamide] | < 1
CCNC1=NS(=O)(=O)N=C1NC1CCc2sc(NC(=O)C3CC3)c(C(=O)NCC3CC3)c2C1 (stereo not drawn) [Example 134, 2-(Cyclopropanecarbonylamino)-N-(cyclopropylmethyl)-5-[[4-(ethylamino)-1,1-dioxo-1,2,5-thiadiazol-3-yl]amino]-4,5,6,7-tetrahydrobenzothiophene-3-carboxamide] | < 1
O=C(NCC1CC1)c1c(NC(=O)C2CC2)sc2c1CC(n1nncc1Nc1cccnc1)CC2 (stereo not drawn) [Example 141, 2-(Cyclopropanecarbonylamino)-N-(cyclopropylmethyl)-5-[5-(3-pyridylamino)triazo-1-yl]-4,5,6,7-tetrahydrobenzothiophene-3-carboxamide] | < 1
CC1(O)CCc2sc(NC(=O)C3CC3)c(C(=O)NCC3CC3)c2C1 (stereo not drawn) [Example 74, 2-(Cyclopropanecarbonylamino)-N-(cyclopropylmethyl)-5-hydroxy-5-methyl-6,7-dihydro-4H-benzothiophene-3-carboxamide] | 10 to 50
